Data as given in patent publication US12227512B2, “Benzimidazoles and methods of using same” (priority 2019, dated 2025).
Where two headings read alike, the source gives them in different places.

Assays:
[1] = Maximum tolerated dose (MTD) in mice; type: in vivo; details: AG129 mice; for Alive/total / MDD ± SD (average day of death) / Mean wt. change (g) ± SD: q 3 d × 3; for Alive/total / MDD ± SD (average day of death): 14 days; for Mean wt. change (g) ± SD: weight on 0 and 2 days post-initial treatment
Experimental: Without wishing to be bound by theory, the purpose of this study is to further identify the MTD and dosing frequency that can be used for Isis-11 (E2) in future antiviral efficacy studies.
Animals: 21 AG129 mice produced by an in-house colony were used. Groups of animals were assigned by weight to experimental groups and individually marked with ear tags.
Test agent: Isis-11 (E2) was provided by University of Utah for testing in the mouse model.
[…] Additional treatments were administered at various time points. Mice were monitored for mortality until 14 days post-initial treatment (dpi). Individual weights were measured daily 0-10 dpi and on 14 dpi.
Statistical analysis: Survival data were analyzed using the Wilcoxon log-rank survival analysis and all other statistical analyses were done using one-way ANOVA using a Bonferroni group comparison (Prism 5, GraphPad Software, Inc.).

[2] = test system: SUFU-KO-Light cells expressing Gli-luciferase; test: Dose-effect curves, dual-Glo luciferase, Compusyn; type: cell-based
[3] = test system: Puerto Rica strain of infectious Zika virus; test: microbe, parasite or virus in culture; type: cell-based; details: Vero
[4] = test system: Zika virus, Dengue, Yellow Fever Virus, West Nile Virus; test: organism not typed; type: cell-based; details: read-out: EC50, viral replication
SARS-CoV-2 [5] = test: microbe, parasite or virus in culture; details: Severe acute respiratory syndrome coronavirus 2, Vero C1008, read-out: EC50, inhibition of cell death
SARS-CoV-2 [6] = details: infected Vero cells, 24 hours post-infection, Western blot
[7] = test system: Gli-luciferace activity in the SUFU-KO-light cells; test: SUFU-KO-Light assay, inhibition of Gli-luciferase activity; type: cell-based; details: read-out: IC50 (μM) SUFU-KO-Light; inhibition of Gli-luciferase activity; listed as Isis-11 (−isomer/E2)
Description: IC50 SUFO-KO-Light values are for inhibition of Gli-luciferace activity in the SUFU-KO-light cells developed by the James Chen laboratory at Stanford University.

[8] = Mouse PK evaluation, plasma, IV; details: CD-1 mice; for AUC(0-inf): AUCInf; for MRT inf: MRTInf_obs
MB002 cells = test: MTT assay, cell proliferation; type: cell-based
UW-426 (Hh subcategory) = test: MTT assay, Medulloblastoma cell line; type: cell-based; details: UW426
Experimental: (§1) The EC50 values shown below in Table 9 were determined for Isis-11 (E2) by MTT assay in the Medulloblastoma cell lines as indicated.

Shh-NPD (Hh subcategory) = test: MTT assay, Medulloblastoma cell line; type: cell-based
Experimental: as §1

[9] = test system: Rift Valley Fever Virus (RVFV); test: microbe, parasite or virus in culture; type: cell-based
[10] = test system: Raji (Burkitt Lymphoma cell line); test: Raji cell viability / proliferation; details: Homo sapiens, read-out: IC50, Raji cell proliferation
[11] = CD-1, mouse, in vivo, iv, 3 mg/kg, Mean, 3 mg/kg IV
[12] = CD-1, mouse, in vivo, iv, 3 mg/kg, Mouse 1, 3 mg/kg IV
[13] = CD-1, mouse, in vivo, iv, 3 mg/kg, Mouse 2, 3 mg/kg IV

Compound: CN(C)CCCn1c(N)nc2ccc3c(c21)CC(CN(C)C)O3 (single isomer, unassigned) [Compound E2]
- Alive/total ([1]; 1.0 mg/kg/d): 3/3
- MDD ± SD (average day of death) ([1]; 1.0 mg/kg/d): >14.0 ± 0.0 days
- Mean wt. change (g) ± SD ([1]; 1.0 mg/kg/d): -1.2 ± 0.8 g
- tolerability ([1]; 3.2 mg/kg eod or q3d): well-tolerated
- mortality and weight loss ([1]; 3.2 mg/kg i.p.): no mortality or weight loss
- Alive/total ([1]; 3.2 mg/kg/d): 3/3
- MDD ± SD (average day of death) ([1]; 3.2 mg/kg/d): >14.0 ± 0.0 days
- Mean wt. change (g) ± SD ([1]; 3.2 mg/kg/d): -0.1 ± 0.8 g
- mortality (animals succumbing to toxicity) ([1]; 10 mg/kg i.p., eod or q3d): 2 of 5
- body weight ([1]; 10 mg/kg i.p., between 0 and 14 days after initial treatment): some transient weight loss, but an overall weight gain
- mortality ([1]; 32 mg/kg i.p., eod for 4 treatments or q3d for 3 treatments): all succumbed
- body weight ([1]; 32 mg/kg i.p., eod or q3d): weight loss
- tolerability, second study ([1]; 3.2 or 1.0 mg/kg/d once every third day): well-tolerated with no indication of toxicity
- tolerability ([1]; 10 or 32 mg/kg, eod or q3d): toxic
- toxicity, initial study ([1]; administered bid, once a day at total daily doses of 32, 10, or 3.2 mg/kg/d): substantial toxicity
- MTD at 14 days ([1]; mouse, in vivo, ip): 3.2 mg/kg
- EC50 ([2]; read-out: Dose E2): 63.5 nM
- EC50 ([2]; read-out: EC50 as single agent): 60 nM
- EC50 [3]: 80 nM
- EC50 [4]: 290 to 320 nM
- EC50 (SARS-CoV-2 [5]): 142 nM
- SARS-CoV-2 nucleocapsid protein levels (SARS-CoV-2 [6]): dose-dependent reduction of viral protein
- IC50 [7]: 0.1 µM
- AUC_%Extrap_obs, Mean ([8]; 3 mg/kg IV): 22.3%
- AUC_%Extrap_obs, Mouse 1 ([8]; 3 mg/kg IV): 10.4%
- AUC_%Extrap_obs, Mouse 2 ([8]; 3 mg/kg IV): 18.9%
- AUC_%Extrap_obs, Mouse 3 ([8]; 3 mg/kg IV): 37.6%
- AUClast, Mean ([8]; 3 mg/kg IV): 439 ng·h/mL
- AUClast, Mouse 1 ([8]; 3 mg/kg IV): 472 ng·h/mL
- AUClast, Mouse 2 ([8]; 3 mg/kg IV): 360 ng·h/mL
- AUClast, Mouse 3 ([8]; 3 mg/kg IV): 487 ng·h/mL
- AUClast/D, Mean ([8]; 3 mg/kg IV): 146
- AUClast/D, Mouse 1 ([8]; 3 mg/kg IV): 157
- AUClast/D, Mouse 2 ([8]; 3 mg/kg IV): 120
- AUClast/D, Mouse 3 ([8]; 3 mg/kg IV): 162
- C0, Mean ([8]; 3 mg/kg IV): 794 ng/mL
- C0, Mouse 1 ([8]; 3 mg/kg IV): 861 ng/mL
- C0, Mouse 2 ([8]; 3 mg/kg IV): 801 ng/mL
- C0, Mouse 3 ([8]; 3 mg/kg IV): 720 ng/mL
- Cl_obs, Mean ([8]; 3 mg/kg IV): 91 mL/min/kg
- Cl_obs, Mouse 1 ([8]; 3 mg/kg IV): 95.0 mL/min/kg
- Cl_obs, Mouse 2 ([8]; 3 mg/kg IV): 113 mL/min/kg
- Cl_obs, Mouse 3 ([8]; 3 mg/kg IV): 64.1 mL/min/kg
- Vss_obs, Mean ([8]; 3 mg/kg IV): 71.1 L/kg
- Vss_obs, Mouse 1 ([8]; 3 mg/kg IV): 43.7 L/kg
- Vss_obs, Mouse 2 ([8]; 3 mg/kg IV): 82.5 L/kg
- Vss_obs, Mouse 3 ([8]; 3 mg/kg IV): 87.0 L/kg
- Plasma concentration, Mean ([8]; 3 mg/kg IV, 0.083 h): 457 ng/mL
- Plasma concentration, Mouse 1 ([8]; 3 mg/kg IV, 0.083 h): 445 ng/mL
- Plasma concentration, Mouse 2 ([8]; 3 mg/kg IV, 0.083 h): 452 ng/mL
- Plasma concentration, Mouse 3 ([8]; 3 mg/kg IV, 0.083 h): 473 ng/mL
- Plasma concentration, Mean ([8]; 3 mg/kg IV, 0.25 h): 155 ng/mL
- Plasma concentration, Mouse 1 ([8]; 3 mg/kg IV, 0.25 h): 118 ng/mL
- Plasma concentration, Mouse 2 ([8]; 3 mg/kg IV, 0.25 h): 143 ng/mL
- Plasma concentration, Mouse 3 ([8]; 3 mg/kg IV, 0.25 h): 203 ng/mL
- Plasma concentration, Mean ([8]; 3 mg/kg IV, 0.5 h): 98 ng/mL
- Plasma concentration, Mouse 1 ([8]; 3 mg/kg IV, 0.5 h): 158 ng/mL
- Plasma concentration, Mouse 2 ([8]; 3 mg/kg IV, 0.5 h): 60.2 ng/mL
- Plasma concentration, Mouse 3 ([8]; 3 mg/kg IV, 0.5 h): 75.5 ng/mL
- Plasma concentration, Mean ([8]; 3 mg/kg IV, 1 h): 51.1 ng/mL
- Plasma concentration, Mouse 1 ([8]; 3 mg/kg IV, 1 h): 64.0 ng/mL
- Plasma concentration, Mouse 2 ([8]; 3 mg/kg IV, 1 h): 42.7 ng/mL
- Plasma concentration, Mouse 3 ([8]; 3 mg/kg IV, 1 h): 46.5 ng/mL
- Plasma concentration, Mean ([8]; 3 mg/kg IV, 2 h): 27.2 ng/mL
- Plasma concentration, Mouse 1 ([8]; 3 mg/kg IV, 2 h): 31.9 ng/mL
- Plasma concentration, Mouse 2 ([8]; 3 mg/kg IV, 2 h): 26.8 ng/mL
- Plasma concentration, Mouse 3 ([8]; 3 mg/kg IV, 2 h): 22.8 ng/mL
- Plasma concentration, Mean ([8]; 3 mg/kg IV, 4 h): 19.0 ng/mL
- Plasma concentration, Mouse 1 ([8]; 3 mg/kg IV, 4 h): 25.4 ng/mL
- Plasma concentration, Mouse 2 ([8]; 3 mg/kg IV, 4 h): 11.7 ng/mL
- Plasma concentration, Mouse 3 ([8]; 3 mg/kg IV, 4 h): 19.8 ng/mL
- Plasma concentration, Mean ([8]; 3 mg/kg IV, 8 h): 8.9 ng/mL
- Plasma concentration, Mouse 1 ([8]; 3 mg/kg IV, 8 h): 8.79 ng/mL
- Plasma concentration, Mouse 2 ([8]; 3 mg/kg IV, 8 h): 7.76 ng/mL
- Plasma concentration, Mouse 3 ([8]; 3 mg/kg IV, 8 h): 10.2 ng/mL
- Plasma concentration, Mean ([8]; 3 mg/kg IV, 24 h): 6.9 ng/mL
- Plasma concentration, Mouse 1 ([8]; 3 mg/kg IV, 24 h): 4.57 ng/mL
- Plasma concentration, Mouse 2 ([8]; 3 mg/kg IV, 24 h): 4.10 ng/mL
- Plasma concentration, Mouse 3 ([8]; 3 mg/kg IV, 24 h): 12.1 ng/mL
- AUC(0-inf) [8, 11]: 485 ng·h/mL
- AUC(0-inf) [8, 12]: 526 ng·h/mL
- AUC(0-inf) [8, 13]: 444 ng·h/mL
- MRT inf [8, 11]: 9.9 h
- MRT inf [8, 12]: 7.67 h
- MRT inf [8, 13]: 12.2 h
- half-life ([8]; CD-1, mouse, in vivo, iv, 3 mg/kg, T1/2, Mouse 2, 3 mg/kg IV): 14.2 h
- EC50 (MB002 cells; MB002): 430 nM
- IC50 (MB002 cells; MB002, read-out: Dose E2): 320 nM
- EC50 (UW-426 (Hh subcategory)): 105 nM
- EC50 (Shh-NPD (Hh subcategory)): 720 nM
- activity relative to BCX4430 against RVFV [9]: 92 fold
- EC50 ([9]; Rift Valley fever virus): 450 nM
- IC50 [10]: 200 nM
